Source: patent US20230338564A1, “NEODEGRADER CONJUGATES” (Orum Therapeutics, Inc., priority 2020, published 2023)
pIC50: −log10 of the molar value.

Key:
Experiment in all cases: In vitro antiproliferation assay, General Procedure 2 (CCK-8)
Format in all cases: cell-based
BT-474 cell line = settings: Homo sapiens, Breast, read-out: IC50, BT474
Description: (§1) Cell Culture: Cell lines were obtained from the American Type Culture Collection (ATCC, Manassas, VA, USA) or Deutsche Sammlung von Mikroorganismen und Zellkulturen (DSMZ, Braunschweig, Germany) and maintained according to the culturing conditions specified by ATCC or DSMZ. Cells were thawed out and maintained in culture for at least two passages before proceeding with experimental conditions.
(§2) Cytotoxicity assays: For adherent cell lines, the cells were dissociated with enzyme-free PBS-based cell dissociation buffer (Gibco, USA) and plated on tissue culture treated 96-well flat bottom polystyrene plates (Costar, Corning, USA) at appropriate cell densities depending on doubling time of the cells. 18 hours after plating, cells were treated with test articles at appropriate concentrations starting at 100 nM and diluted in 4-fold serial dilutions. For suspension cell lines, the cells were seeded on the same day of treatment and cells were treated as described above. Adherent cells were treated for 5 days and suspension cells were treated for 3 days. Cell proliferation was assessed using the Cell Counting Kit-8 (CCK-8, Dojindo Laboratories, Japan) and measurements were obtained using the Promega GloMax Discover plate reader (Promega, USA). Data were analyzed using GraphPad Prism software (GraphPad Software, San Diego, CA). All data points were obtained from technical triplicates and the experiments were validated using three biological replicates.

CMK cell line = settings: Homo sapiens, Acute megakaryocytic leukemia
Description: as §1, §2

ML-2 cell line = settings: Homo sapiens, ML-2; Acute myelomonocytic leukemia; read-out: IC50, ML-2
Description: as §1, §2

MOLM13 cell line = settings: Homo sapiens, MOLM-13; AML; read-out: IC50, MOLM13
Description: as §1, §2

NB-4 cell line = settings: Homo sapiens, Acute promyelocytic leukemia
Description: as §1, §2

OCI-M2 cell line = settings: Acute myelocytic leukemia
Description: as §1, §2

RH30 cell line = settings: Rhabdomyosarcoma
Description: as §1, §2

RH41 cell line = settings: Homo sapiens, Rhabdomyosarcoma
Description: as §1, §2

RPMI7951 cell line = settings: Homo sapiens, RPMI-7951; Skin
Description: as §1, §2

SNU182 cell line = settings: Homo sapiens, SNU-182; Liver
Description: as §1, §2

SU-DHL-8 cell line = settings: Homo sapiens, NHL
Description: as §1, §2

THLE2 cell line = settings: THLE-2; Human liver normal
Description: as §1, §2

U251MG cell line = settings: Homo sapiens, U-251; Brain
Description: as §1, §2

- pIC50 (BT-474 cell line): 7.89
- pIC50 (MOLM13 cell line): 7.61
- pIC50 (OCI-M2 cell line): 6.19
- pIC50 (SNU182 cell line): 7.90
- pIC50 (SU-DHL-8 cell line): 6.99
- pIC50 (U251MG cell line): < 6.00
SMILES: CNCCOCCc1ccc(NC(=O)NCc2ccc3c(c2)CN(C2CCC(=O)NC2=O)C3=O)cc1Cl (stereo not shown) [Compound P1, 1-(3-chloro-4-[2-[2-(methylamino)ethoxy]ethyl]phenyl)-3-[[2-(2,6-dioxopiperidin-3-yl)-1-oxo-3H-isoindol-5-yl]methyl]urea]
- pIC50 (CMK cell line): 6.39
- pIC50 (ML-2 cell line): 8.73
- pIC50 (NB-4 cell line): 8.06
- pIC50 (RH30 cell line): 6.76
- pIC50 (RH41 cell line): 5.92
- pIC50 (RPMI7951 cell line): 7.01
- pIC50 (THLE2 cell line): < 6.00
